Assay results as given in patent publication US8633177B2, “Nitroxyl (HNO) releasing compounds and uses thereof in treating diseases” (The United States of America, as represented by the …, priority 2010, dated 2014).

Columns and labels:
[1] = Kinetic profile of NO and HNO release / stability in buffer; type: physicochemical; details: phosphate buffer pH 7.4, several hours
Experimental: The newly synthesized HNO-releasing aspirin (IPA/NO-aspirin, 4) and NO-releasing aspirin (DEA/NO-aspirin, 8) were evaluated for the kinetic profile of NO and HNO release in buffer and cells.

[2] = NO release measured with NO specific electrode, 2% serum; type: physicochemical; details: 100 μM; for NO release: 2% serum; for [NO]pA: phosphate buffer pH 7.4, 2% serum
Experimental: The release of NO was evaluated using an NO specific electrode. The NO electrode was stabilized in phosphate buffer pH 7.4 containing 2% serum. Compounds 4 and 8 in DMSO were added and the NO signal was measured. The experiment was repeated in the presence of 1 mM sodium ferricyanide.
Since there is no direct method for detection of HNO, 1 mM ferricyanide solution was used, which converts HNO to NO that can then be detected using NO electrode. K3Fe(CN)6+HNO ? NO

[3] = test system: carrageenan induced rat paw edema; assay: Carrageenan induced rat paw edema assay; type: in vivo, Sprague-Dawley rats; details: for Anti-inflammatory Activity ID50: oral, 3 h after administration
Experimental: Anti-inflammatory properties were studied in vivo in a carrageenan induced rat paw edema assay after 3 h of administration of the compound orally to Sprague-Dawley rats.
To verify whether IPA/NO-aspirin and DEA/NO-aspirin retain the anti-inflammatory properties of their parent NSAID in vivo, aspirin, PA/NO-aspirin or DEA/NO-aspirin was administered to rats with paw edema induced by carrageenan.

MCF-7 cells = assay: MTT cell survival, MCF-7; type: cell-based, human; details: MTT assay
Experimental: (§1) MDA-MB-231, MCF-7 and MDA-MB-468, human breast carcinoma cell lines and MCF-10A, breast […] (American Type Culture Collection, Manassas, Va.) were grown as monolayers in RPMI 1640 supplemented with 10% FCS (Hyclone), penicillin (50 units/ml), streptomycin ([…]; Life Technologies, Inc., Grand Island, N.Y.) and endothelial growth media (Lonanza) respectively. Cells were seeded at a density of 1×10^6 cells/100-cm^2 culture dish and incubated at 37° C. in 5% CO2 and 80% relative humidity. Single-cell suspensions were obtained by trypsinization (0.05% trypsin/EDTA), and cells were counted using a Beckman cell counter.
(§2) 1000× stock solutions aspirin, of a DEA/NO-ASA, and IPA/NO-ASA were made in DMSO and final concentration in the media or PBS was adjusted to 0.1% DMSO.
(§3) The effect of NONO-aspirin on cell proliferation was studied using an MTT assay. The effect of DEA/NO-ASA, IPA/NO-ASA, aspirin, IPA/NO and DEA/NO was measured using the MTT assay. Cells were plated at a concentration of 8,000-10,000 cells per well in a 96 well plate and grown overnight. Cells were treated with different concentrations of the compounds and controls for 48 h. After 48 h, a solution of 5 mg/ml MTT was added to each well and incubated for 1 h. Then the media was removed from each well and 100 uL DMSO was added to each well and the absorbance was read at 550 nm. […]

MCF-10A = assay: MTT cell survival, MCF-10A; type: cell-based; details: MCF-10A normal mammary epithelial cell line, 48 h
Experimental: as §1, §2, §3

caspase-3 = assay: Caspase-3 fluorescence assay, MCF-7; type: cell-based, human; details: 12 h
Experimental: The caspase-3 activity in the presence of IPA/NO-ASA and DEA/NO-ASA was measured using caspase-3 fluorescence assay kit (Cat No. 10009135, Cayman Chemical). Cells were plated at a concentration of 50,000 cells per well in a 96 well plate and grown overnight. Then the cells were treated with different concentrations of the compounds and controls for 12 h. After 12 h, the plate was centrifuged at 800 g and the media was removed by aspiration. 100 μL of lysis buffer was added to each well and the plate was incubated for […] at room temperature. 100 μL of a caspase-3 substrate solution was added to each well and incubated for 30 min after which the fluorescence was read at excitation of 485 nm and emission of 535 nm.

MDA-MB-231 cell line = assay: Comet assay for DNA damage, MDA-MB-231; type: cell-based, human; details: 50 μM IPA/NO-aspirin, 75 μM DEA/NO-aspirin
Experimental: The pathological aspect of high ROS is the ability to cause oxidative damage to DNA. To further investigate this possibility, the effect of NONO-aspirin was studied on DNA damage using a comet assay in the MDA-MB-231 cell line.
Cells were plated at a concentration of 50,000 cells per well in a 12 well plate and grown overnight. Cells were treated with 50 μM IPA/NO-aspirin and 75 μM DEA/NO-aspirin for 12 h and the assay was conducted using a comet assay kit (Cat No. 4250-050-K, Trevigen, Md.) as described in the manufacturer's instructions.

p53 = assay: Phosphorylation of p53 in MB-231 cells; type: cell-based, human; details: 50 μM IPA/NO-aspirin, 75 μM DEA/NO-aspirin
Experimental: MB-231 cells were plated at a concentration on 1E6 and grown for 24 h. Then the cells were serum starved overnight followed by treatment with 50 μM and 75 μM, respectively, of IPA/NO-aspirin and DEA/NO-aspirin for 3, 6, 12 h. The cells were harvested and lysed with lysis buffer (cell signaling). Cell lysate was centrifuged at 13,000 rpm for 20 min and the supernatant was transferred to fresh tube. Protein ([…]) of protein was loaded in each lane on a 15% tris-glycine gel and electrophoresis was completed at 120V.

[4] = target: glyceraldehyde-3-phosphate dehydrogenase (GAPDH) (Homo sapiens, UniProt P04406); assay: GAPDH activity, MDA-MB-231; type: cell-based; design: endogenous in cells; host or cells: MDA-MB-231, MDA-MB-468, MCF-7, MCF-10A; details: MDA-MB-231, 100 μM
Chain of glyceraldehyde-3-phosphate dehydrogenase (GAPDH) (P04406 whole entry): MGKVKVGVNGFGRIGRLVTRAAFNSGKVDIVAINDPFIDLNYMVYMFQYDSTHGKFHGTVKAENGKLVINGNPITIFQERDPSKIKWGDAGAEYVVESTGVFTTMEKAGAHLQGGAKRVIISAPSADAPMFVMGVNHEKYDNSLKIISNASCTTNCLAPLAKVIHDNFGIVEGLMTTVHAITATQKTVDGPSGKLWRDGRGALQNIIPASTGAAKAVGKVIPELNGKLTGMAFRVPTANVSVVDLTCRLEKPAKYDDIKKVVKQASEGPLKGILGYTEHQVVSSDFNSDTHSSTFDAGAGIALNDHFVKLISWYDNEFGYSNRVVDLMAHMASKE
Experimental: Cells were plated at a concentration of 30,000 cells per well and grown overnight. Cells were treated with 100 μM IPA/NO-aspirin and DEA/NO-aspirin for 1, 3, and 6 h after which 200 μL of KDalert lysis buffer was added to each well. The plate was incubated at 4° C. for 20 min to lyse the cells. 10 μL of cell lysate was transferred to a clean 96 well plate and 90 μL of KDalert mastermix was added to each well and the fluorescence was measured at excitation of 540 nm and emission of 570 nm.

| Structure (SMILES) | stability in phosphate buffer [1] | NO release [2] | [NO]pA ([2]; +Ferricyanide 1 mM) | [NO]pA ([2]; without ferricyanide) | potency relative to aspirin ([3]; less potent than parent drug) | Anti-inflammatory Activity ID50 [3] | IC50 (MCF-7 cells) | cytotoxicity (MCF-10A) | Caspase-3 Activity (caspase-3; MCF-7, 25 μM) | Caspase-3 Activity (caspase-3; MCF-7, 50 μM) | Caspase-3 Activity (caspase-3; MCF-7, 100 μM) | DNA damage (comet assay) (MDA-MB-231 cell line) | time point of activation of p53 phosphorylation (p53) | GAPDH Activity ([4]; 1 h) | GAPDH Activity ([4]; 3 h) | GAPDH Activity ([4]; 6 h) |
| --- | --- | --- | --- | --- | --- | --- | --- | --- | --- | --- | --- | --- | --- | --- | --- | --- |
| CCN(CC)[N+]([O-])=NOCOC(=O)c1ccccc1OC(C)=O [DEA/NO-aspirin, O^2-(Acetylsalicyloyloxymethyl)-1-(N,N-Diethylamino)-diazen-1-ium-1,2-diolate] | relatively stable | readily released NO | 5000 pA | 4600 pA | 1.3 times | 168.6 mg/kg | 120 µM | none of the compounds showed any significant cytotoxicity | 0.30 U/mL | 0.35 U/mL | 0.27 U/mL | comparable to the DMSO treated control | 1 h | 0.150 U/mL | 0.160 U/mL | 0.150 U/mL |
| CC(=O)Oc1ccccc1C(=O)OCON=[N+]([O-])NC(C)C [IPA/NO-aspirin, O^2-(Acetylsalicyloyloxymethyl)-1-(N-isopropylamino)-diazen-1-ium-1,2-diolate] | relatively stable | significantly lower NO production | 2100 pA | 1000 pA | – | 121.3 mg/kg | 90 µM | none of the compounds showed any significant cytotoxicity | 0.30 U/mL | 0.60 U/mL | 0.58 U/mL | significant DNA damage | 10 h | 0.120 U/mL | 0.070 U/mL | 0.050 U/mL |
